# How the values were obtained:
# [1] = system: Pkd2-KO mice; assay: Previous study of tool anti-miR-17 in Pkd2-KO mice; format: in vivo, mouse; conditions: 20 mg/kg
# Protocol: Previous studies using a research tool anti-miR-17 compound identified a role for miR-17 in PKD in two different models of PKD, the Pkd2-KO model (also known as the Pkhd1/cre; Pkd2^F/F model) and the Pcy model. The research tool modified oligonucleotide complementary to miR-17 was tested in mouse models of PKD. The anti-miR-17 compound was a fully phosphorothioated oligonucleotide 19 linked nucleosides in length (5′-CTGCACTGTAAGCACTTTG-3′; SEQ ID NO: 7), with DNA, 2′-MOE and S-cEt sugar moieties.
# Pkd2-KO mice spontaneously develop polycystic kidney disease. Mice were treated with 20 mg/kg of tool anti-miR-17 compound or control oligonucleotide, or with PBS.
# [2] = In vivo study of research tool compound (proinflammatory effect)
# Protocol: Further, the research tool compound was not sufficiently efficacious for development as a pharmaceutical agent for the treatment of PKD. Accordingly, a screen was performed to identify inhibitors of one or more miR-17 family members that are sufficiently efficacious, convenient to administer, and safe for administration to subjects with PKD. An additional criterion was a sufficiently high kidney-to-liver delivery ratio, to enhance the proportion of anti-miR-17 compound that is delivered to the target organ.
# [3] = Tissue accumulation in kidney and liver (kidney-to-liver ratio); format: in vivo, mouse; conditions: single dose 30 mg/kg, seven days
# Protocol: Pharmacokinetic properties and tissue distribution of select compounds were assessed in wild type C57BL6 mice and JCK mice (an experimental model of PKD). Compound was administered to wild type mouse at a dose of 0.3, 3, or 30 mg/kg, or to JCK mice at a dose of 3, 30, or 100 mg/kg. After seven days, mice were sacrificed. Kidney and liver tissues were collected. Concentration of anti-miR-17 compound was measured in liver and kidney. Compounds that accumulate to a greater level in kidney, relative to liver (i.e., have a higher kidney-to-liver ratio) were preferred.
# The miPSA was used to assess the potency of each compound, measured by the displacement score, in wild type and JCK mice. Tissue accumulation of anti-miR-17 compound was measured by extraction of compound using liquid-liquid extraction (LLE) and/or solid-phase extraction (SPE), followed by analysis of the identity and concentration of compound using ion-pairing-reversed-phase high performance liquid chromatography coupled with time-of-flight mass spectrometry (IP—RP-HPLC-TOF).
# Wild type mice were administered a single dose of 3 mg/kg for the miPSA analysis, and a single dose of 30 mg/kg for the tissue accumulation analysis. JCK mice were administered a single dose of 30 mg/kg for both the miPSA and tissue accumulation analyses. Kidney tissue was collected seven days following the administration of anti-miR-17 compound. […] A higher kidney-to-liver ratio is generally preferred for a disease where the primary site of action is the kidney.
# [4] = system: 18 pro-inflammatory genes; assay: Ex vivo kidney slice assay; format: cell-based; conditions: rat kidney slice; 24-hour incubation; relative to PBS
# Protocol: (§1) In in vitro assays, the potential for toxicity was assessed using a biochemical fluorescent binding assay (FBA) and a liver or kidney slice assay. The FBA is performed by incubating a fluorescent dye with each compound, and immediately measuring fluorescence. Highly fluorescent compounds have the potential to produce toxicity in vivo. The liver or kidney slice assay is performed by incubating a slice of tissue from a core liver sample isolated from rat. Following a 24-hour incubation, RNA is extracted from the tissue slice, and the expression levels of 18 pro-inflammatory genes are measured. An induction in pro-inflammatory gene expression indicates a potential for pro-inflammatory effects in vivo.
# Ex vivo assays were performed with liver or kidney tissue slices. The liver or kidney slice assay is performed by incubating a slice of tissue from a core liver or kidney sample isolated from rat. Following a 24-hour incubation, RNA is extracted from the tissue slice, and the expression levels of 18 pro-inflammatory genes, including IFIT, are measured. A log 2 transformation of the fold change (Log2-FC) relative to PBS treatment was performed. An induction in pro-inflammatory gene expression indicates a potential for pro-inflammatory effects in vivo.
# [5] = Biochemical fluorescent binding assay (FBA); conditions: fold change relative to control-treated samples
# Protocol: as §1
# The potential for toxicity was assessed using a biochemical fluorescent binding assay (FBA). The FBA is performed by incubating a fluorescent dye with each compound, and immediately measuring fluorescence. Results are expressed as fold change (Linear FC) relative to control-treated samples. Highly fluorescent compounds have the potential to produce toxicity in vivo.
# [6] = In vitro metabolic stability in monkey liver lysate; format: in vitro ADME; conditions: 24-hour incubation of RG4326
# Protocol: (§2) Due to their reduced capacity for serum protein binding, which is a property that drives oligonucleotide distribution in the body, short oligonucleotides are not necessarily expected to have pharmacokinetic properties that make them suitable for use as drugs. RG4326 was incubated in mouse, monkey or human liver homogenate. The identity and concentration of RG4326 and metabolites was determined after a 24-hour incubation. RG4326 and metabolites were extracted using liquid-liquid extraction (LLE) and/or solid-phase extraction (SPE), which were then analyzed for identity and concentration using ion-pairing-reversed-phase high performance liquid chromatography coupled with time-of-flight mass spectrometry (IP—RP-HPLC-TOF).
# [7] = system: IFIT; assay: In vivo acute assay in Sv129 mice; parameters: species or system mouse; conditions: single s.c. 300 mg/kg, four days, relative to PBS
# Protocol: Additional in vivo toxicology assessments were performed by administering to normal mice (Sv129 mice) a single subcutaneous injection of 300 mg/kg of anti-miR-17 compound. After four days, mice were sacrificed, blood was collected for serum chemistry analysis, liver and spleen were weighed, and RNA was isolated from kidney and liver tissues. The expression level of a pro-inflammatory gene, interferon-induced protein with tetratricopeptide repeats (IFIT), was measured.
# An in vivo assay was performed in normal, Sv129 mice. A single, subcutaneous dose of 300 mg/kg of RG4326 was administered. Included as control treatments were PBS, and two anti-miRs not related to miR-17, one known to be pro-inflammatory (positive control) and one that is not pro-inflammatory (negative control). Four days later, mice were sacrificed. Kidney and liver tissue was isolated for RNA extraction. The level of a gene known to be induced during an inflammatory response, IFIT, was measured and normalized to mouse GAPDH. A log 2 transformation of the fold change (Log2-FC) relative to PBS treatment was performed.
# [8] = Metabolic stability in liver homogenate, summary over species; format: in vitro ADME; conditions: mouse, monkey or human liver homogenate
# Protocol: as §2
Molecule,BUN and expression of kidney injury mRNA biomarkers Kim1 and Nga1 (in words) [1],serum creatinine level and cyst index (in words) [1],kidney-to-body weight ratio reduced relative to control treatment ([1]; p=0.017) [%],proinflammatory effect (in words) [2],Kidney-to-Liver Ratio PKD Mice ([3]; JCK mice),Kidney-to-Liver Ratio Wild Type Mice ([3]; wild type mice),Ex Vivo Kidney Slices Assay Pro-Inflammatory Signature Score (Log2-FC) [4] [Log2-FC],Biochemical Fluorescence Binding Assay Relative Fluorescence Unit (Linear FC) [5] [Linear FC],"Ex Vivo Liver Lysate (% Analyte), Monkey [6] [%]",In Vivo Acute Assay Kidney IFIT expression (Log2-FC) [7],In Vivo Acute Assay Liver IFIT expression (Log2-FC) [7] [Log2-FC],parent compound remaining intact after the 24-hour incubation [8]
"5′-CTGCACTGTAAGCACTTTG-3′ (all phosphorothioate, sugars by position and methylation of C not given here; DNA, 2'-MOE and S-cEt sugars) [Tool anti-miR-17, reference compound]",significantly reduced,trend toward reduced,17,slightly proinflammatory,–,–,–,–,–,–,–,–
"COC1C(OP(=O)(S)OC[C@H]2O[C@@H](n3cnc4c(N)ncnc43)C(F)C2OP(=O)(S)OC[C@H]2O[C@@H](n3ccc(N)nc3=O)C(F)C2OP(=O)(S)OC[C@H]2O[C@@H](n3ccc(=O)[nH]c3=O)C(F)C2OP(=O)(S)OC[C@H]2O[C@@H](n3ccc(=O)[nH]c3=O)C(OC)C2OP(=O)(S)OC[C@]23O[C@@H](n4ccc(=O)[nH]c4=O)C(O[C@H]2C)C3OP(=O)(S)OC[C@]23O[C@@H](n4cnc5c(=O)[nH]c(N)nc54)C(O[C@H]2C)C3O)[C@@H](COP(=O)(S)OC2C3O[C@@H](C)[C@]2(COP(=O)(S)OC2C4O[C@@H](C)[C@]2(CO)O[C@H]4n2cnc4c(N)ncnc42)O[C@H]3n2cnc3c(=O)[nH]c(N)nc32)O[C@H]1n1ccc(N)nc1=O (stereo in doubt) [RG4326, ASGSCMAFCFUFUMUSGS]",–,–,–,–,6.0,9.8,−0.30 ± 0.22,24.9 ± 3.1,95.9,0.34 (n = 1) Log2-FC,0.21 ± 0.08,over 95%

# Reference: patent US20250333745A1, “METHODS AND COMPOSITIONS FOR TREATMENT OF POLYCYSTIC KIDNEY DISEASE” (Regulus Therapeutics Inc., priority 2016, published 2025)
